The record followed here is patent US4232160A, “Isoquinoline propionamides exhibiting analgesic properties” (Miles Laboratories, Inc., priority 1978, dated 1980).

SMILES strings stand for the structures. Counter-ions that a name gives are not always drawn.

In the first experiment the test system is male CD-1 mice. The experiment can be described thus: acetic acid induced writhing test (analgesic activity, subcutaneous). Format: in vivo. As to conditions: Mus musculus, sc, 0.5% acetic acid i.p. 15 min post drug, writhes counted in 20 min interval beginning 5 min after acetic acid, read-out: ED50 (dose required to reduce the number of writhes by 50%). The method, then:
The analgesic activity of the isoquinoline propionanilides prepared as described in Examples I-XIII was determined by the acetic acid induced writhing test described by Whittle et al., Brit. J. Pharmacol, 22 296 (1964). In this test at least three groups of five male CD-1 mice each were given subcutaneous doses of the test drug dissolved in either distilled water or distilled water acidified with HCl depending on solubility of the compound. In all cases 0.4 ml. of 0.5% v/v acetic acid in distilled water was administered intraperitoneal 15 minutes post drug. The number of writhes in a 20 minute interval beginning 5 minutes after the acetic acid injection were determined and compared with the number of writhes in control groups which had received only acetic acid. In two cases the ITME writhing test protocol was used which is the same as that outlined above except that the number of writhes are determined for 10 minutes after the administration of acetic acid.
Percent inhibition of writhing was calculated as: [formula]
The ED50 does, ie. the dose required to reduce the number of writhes by 50%, was determined graphically from a plot of % inhibition as a probit versus log dose. Confidence limits of 95% were calculated on the basis of those results falling in the range 16-84% inhibition. See Litchfield, J. T. and Wilcoxon, F., J Pharmacol. Exp. Ther., 96 99-113, (1949).
Regarding `CCC(=O)N(CC1c2ccccc2CCN1C)c1ccc(C)cc1.Cl` (stereo not shown) [TR-3355, N-[(1,2,3,4-Tetrahydro-2-methyl-1-isoquinolyl)methyl]-N-(4-methylphenyl)propionamide hydrochloride], the 50% effective dose (ED50) was found to be 0.53 mg/kg.
The same measure, in the same setting: for `CCC(=O)N(CC1c2ccccc2CCN1C)c1ccccn1` (stereo not shown) [TR-3461, N-[(2-Methyl-1,2,3,4-tetrahydro-1-isoquinolyl)methyl]-N-(2-pyridyl)priopionamide hydrochloride] the value was 10.7 mg/kg; for `CCCCCCN1CCc2ccccc2C1CN(C(=O)CC)c1ccccc1.O.O=C(O)C(=O)O` (stereo not shown) [TR-3309, N-[(1,2,3,4-Tetrahydro-2-n-hexyl-1-isoquinolyl)methyl]propionanilide oxalate hydrate], 2.08 mg/kg.
Take `CCC(=O)N(Cc1ccccc1)CC1c2ccccc2CCN1Cc1ccccc1` (stereo not shown) [TR-3388, N-[(1,2,3,4-Tetrahydro-2-benzyl-1-isoquinolyl)methyl]-N-benzylpropionamideoxalate]: the ED50 is 33 mg/kg.
On the same count and under the same terms, the value for `CCC(=O)N(CC1c2ccccc2CCN1CC1CC1)c1ccccc1.Cl` (stereo not shown) [TR-3207, N-[(1,2,3,4-Tetrahydro-2-cyclopropylmethyl-1-isoquinolyl)methyl]propionanilide hydrochloride] was 7.45 mg/kg; that for `CCC(=O)N(CC1c2ccccc2CCN1C)c1ccc(Cl)cc1.Cl` (stereo not shown) [TR-3354, N-[(1,2,3,4-Tetrahydro-2-methyl-1-isoquinolyl)methyl]N-(4-chlorophenyl)propionamide hydrochloride] was 0.5 mg/kg.
The same measure, in the same setting: the value for `CCC(=O)N(Cc1ccccc1)CC1c2ccccc2CCN1C` (stereo not shown) [TR-3389, N-[(1,2,3,4-Tetrahydro-2-methyl-1-isoquinolyl)methyl]-N-benzylpropionamideoxalate] was 23 mg/kg; that for `CCC(=O)N(CC1c2ccccc2CCN1Cc1ccccc1)c1ccccc1.Cl` (stereo not shown) [TR-3359, N-[(1,2,3,4-Tetrahydro-2-benzyl-1-isoquinolyl)methyl]propionanilide hydrochloride] was 15 mg/kg; that for `CCCCCN1CCc2ccccc2C1CN(C(=O)CC)c1ccccc1.Cl` (stereo not shown) [TR-3316, N-[(1,2,3,4-Tetrahydro-2-n-pentyl-1-isoquinolyl)methyl]propionanilide hydrochloride] was 1.76 mg/kg.
In the case of `CCC(=O)N(CC1c2cc(OC)c(OC)cc2CCN1C)c1ccccc1` (stereo not shown) [TR-3426, N-[(6,7-Dimethoxy-2-methyl-1,2,3,4-tetrahydro-1-isoquinolyl)methyl]propionanilide], the ED50 is 4.55 mg/kg.
In the case of `CCC(=O)N(CC1c2ccccc2CCN1C)c1ccccc1.Cl` (stereo not shown) [TR-3284, N-[(1,2,3,4-Tetrahydro-2-methyl-1-isoquinolyl)methyl]propionanilide hydrochloride], the ED50 is 7.1 mg/kg.

The experiment is the same for the next values; noted with them: Mus musculus, sc, 10 min, *According to IMTE writhing test protocol: writhes determined for 10 minutes after acetic acid, read-out: ED50 (dose required to reduce the number of writhes by 50%).
With `CCC(=O)N(CC1c2ccccc2CCN1CCC(C)C)c1ccccc1.Cl` (stereo not shown) [TR-3317, N-[(1,2,3,4-Tetrahydro-2-i-pentyl-1-isoquinolyl)methyl]propionanilide hydrochloride], the ED50 was 16.5 mg/kg.
Same read-out and setting: for `CCC(=O)N(CC1c2ccccc2CCN1CCc1ccccc1)c1ccccc1.Cl` (stereo not shown) [TR-3280, N-[(1,2,3,4-Tetrahydro-2-phenethyl-1-isoquinolyl)methyl]propionanilide hydrochloride] the value was 10 mg/kg.

Broadly, the ED50 is the midpoint of the dose-response relation.
